Read-outs that look alike come from different tables or passages of the source.
Assays:
[1] = test system: HBV replication in HepAD38 cells; assay: In vitro antiviral assay: extracellular HBV DNA by QPCR in HepAD38 cells; format: cell-based, HBV (genotype D, serotype ayw); conditions: Hepatitis B virus, 168 h
Procedure: The anti-HBV activity of the Capsid Assembly Modulators (CAMs) was evaluated in a cell based assay utilizing the human hepatoma cell line HepAD38 (Ladner, S K., et al., 1998). HepAD38 cells were derived from the parental line, HepG2, that were stably transfected with a construct containing an HBV genome (genotype D, serotype ayw) under the control of a tetracycline repressible CMV promoter. Upon removal of tetracycline, viral pre-genomic RNA (pgRNA) and mRNAs are expressed and infectious viral particles are assembled and secreted into the culture medium providing a reliable, robust system to measure multiple steps of the HBV life cycle. Disruption of capsid formation results in reduced levels of DNA-containing virus particles that are released into the culture supernatant. To quantify the effect of CAMs on HBV replication, we developed a sensitive QPCR-based assay that measures extracellular HBV DNA levels upon treatment of HepAD38 cells with various concentrations of test compounds.
HepAD38 cells were maintained in DMEM/F12 medium containing 10% FBS, 400 μg/mL G418 and 0.3 μg/mL tetracycline (tet+media) to maintain repression of HBV replication. To evaluate each compound, HepAD38 cells were seeded into 24-well collagen coated culture plates (Corning BioCoat) at a density of 200,000 cells per well in 1 mL of medium without tetracycline (tet-media) and allowed to adhere overnight at 37° C., 5% CO2 in a humidified incubator. The following day, media was refreshed and a dose range of each compound was prepared by performing 1 log10 serial dilutions in 100% DMSO at 200×the desired assay concentration. Dilutions were then added to the cells resulting in a final dose range of 1 μM to 10 pM and the plates were returned to the incubator. Following 7 days of incubation, culture supernatants were harvested and HBV DNA levels were evaluated by QPCR and compared to the vehicle treated control wells (i.e. DMSO alone).
To quantify HBV DNA levels, cell culture supernatants were diluted 1:10 in sterile, nuclease-free water (Gibco). The diluted supernatants were subsequently added to a PCR master mix containing 1×Roche Light Cycler Master Mix, 0.5 μM forward primer, 0.5 μM reverse primer, 0.2 μM Roche Universal Probe Library Probe 25. The volume was brought to 20 μL with nuclease-free water and amplification of the HBV target sequence was performed using a Roche LightCycler 480 QPCR instrument. PCR extended out to 45 cycles with each cycle consisting of a denaturation step at 95° C. for 10 sec., followed by an annealing step at 60° C. for 10 sec. and a brief extension step at 72° C. for 1 sec.
Extracellular HBV DNA levels, expressed in copies/mL, were determined by comparison to a standard curve (10^2-10^9 copies/mL) using the Roche LightCycler analysis software. These values were subsequently converted to percent inhibition of HBV replication by dividing the HBV DNA levels in the experimental samples with those obtained from the vehicle control (˜1-2×10^5 copies/mL). Potency, expressed as an EC50(the effective concentration required to inhibit 50% of HBV replication), was calculated from the dose-response curve using a 4-parameter non-linear regression analysis (GraphPad Prism). The nucleoside analog inhibitor entecavir was used as a positive control to validate each assay run. The EC50 value of entecavir in the HepAD38 assay was 0.5 nM, as previously reported in the literature.

[2] = In vitro cytotoxicity assay (MTT cell viability) in HepG2 cells; format: cell-based; conditions: human
Procedure: To evaluate antiviral selectivity, the cytotoxic activity of each compound was determined using a standard cell viability assay performed on the parental HepG2 cell line. Cell viability was determined by measuring the conversion of 3-(4,5-dimethylthiazol-2-yl)-2,5-diphenyltetrazolium bromide (MTT) to the insoluble formazan salt crystal that occurs in live cells. Briefly, HepG2 cells were seeded in 96-well plates at a density of 20,000 cells per well in EMEM+10% FBS (complete growth medium) and allowed to adhere overnight in a 37° C., 5% CO2 humidified incubator. The next day, test agents were prepared by performing 8 half-log10 serial dilutions in 100% DMSO at 200×the final desired concentration in the assay. Compounds were tested over a range of concentrations from 30 μM to 1.0 nM in the assay. HepG2 cells were incubated in the presence of various concentrations of CAMs for 7 days in a 37° C., 5% CO2 humidified incubator. At the completion of the 7-day incubation period, MTT reagent was added to each well and the mixture was incubated for an additional 3-4 hours. At the completion of the incubation period, all wells were aspirated to remove the culture medium. The formazan crystals were solubilized from the cell monolayers with 100% DMSO. Plates were briefly mixed on an orbital shaker and absorbance was measured at 492 nm using a Perkin-Elmer EnVision multi-label plate reader. All absorbance values were converted to a percentage of the signal obtained from the vehicle treated controls. Absorbance values at 492 nm are directly proportional to the number of viable cells present in the sample. A CC50 value (cytotoxic concentration that results in loss of 50% cell viability) was calculated from the dose-response curve by 4-parameter, non-linear regression analysis using the GraphPad Prism software. The positive control compound, staurosporine, reduced the viability of HepG2 cells in a dose-dependent manner (CC50=100 nM).

HBV = conditions: Phase 1b clinical trial, 600 mg bid dosing for 29 days; cited from earlier work
[3] = 7 days incubation, read-out: Anti-HBV EC50

Compound	EC50 [1, 3] [nM]	CC50 at 7 days [2] [µM]	reduction in HBV DNA (HBV) [log 10]	CC50 at 7 days ([2]; positive control, HepG2 cells, 7 days, MTT, read-out: CC50 (viability of HepG2 cells)) [µM]	EC50 ([1]; positive control, 7 days, read-out: EC50 in the HepAD38 assay) [nM]
Cc1ccc(F)c(NC(=O)c2c3c(c(C)n2C)C(=O)NC(C)(C)CC3)c1 [Example 10, N-(2-fluoro-5-methylphenyl)-2,3,6,6-tetramethyl-4-oxo-2,4,5,6,7,8-hexahydropyrrolo[3,4-c]azepine-1-carboxamide]	< 50	> 30	–	–	–
Cc1cc(F)cc(NC(=O)c2c3c(c(C)n2C)C(=O)NC(C)(C)CC3)c1 [Example 11, N-(3-fluoro-5-methylphenyl)-2,3,6,6-tetramethyl-4-oxo-2,4,5,6,7,8-hexahydropyrrolo[3,4-c]azepine-1-carboxamide]	< 50	> 30	–	–	–
Cc1c2c(c(C(=O)Nc3cc(F)c(F)c(F)c3)n1C)CCC(C)(C)NC2=O [Example 5, 2,3,6,6-tetramethyl-4-oxo-N-(3,4,5-trifluorophenyl)-2,4,5,6,7,8-hexahydropyrrolo[3,4-c]azepine-1-carboxamide]	> 1000	> 30	–	–	–
Cc1c(C(=O)Nc2ccc(F)c(F)c2)c2c(n1C)C(=O)NC(C)(C)CC2 [Example 2, N-(3,4-difluorophenyl)-1,2,6,6-tetramethyl-8-oxo-1,4,5,6,7,8-hexahydropyrrolo[2,3-c]azepine-3-carboxamide]	50 to 499	5 to 30	–	–	–
Cc1cc(NC(=O)c2c3c(C)c(C)[nH]c(=O)c3c(C)n2C)ccc1F [Example 45, N-(4-fluoro-3-methylphenyl)-2,3,6,7-tetramethyl-4-oxo-4,5-dihydro-2H-pyrrolo[3,4-c]pyridine-1-carboxamide]	500 to 1000	5 to 30	–	–	–
Cc1cc(NC(=O)c2c3c(c(C)n2C)C(=O)NC(C)(C)CC3)ccc1F [Example 4, N-(4-fluoro-3-methylphenyl)-2,3,6,6-tetramethyl-4-oxo-2,4,5,6,7,8-hexahydropyrrolo[3,4-c]azepine-1-carboxamide]	< 50	> 30	–	–	–
O=C(Nc1cc(F)c(F)c(F)c1)c1ccc(F)c(S(=O)(=O)N2CCC(O)CC2)c1 [NVR 3-778]	–	–	−1.7	–	–
CN[C@@H]1C[C@H]2O[C@@](C)([C@@H]1OC)n1c3ccccc3c3c4c(c5c6ccccc6n2c5c31)C(=O)NC4 [staurosporine, reference compound]	–	–	–	0.1	–
Cc1cccc(NC(=O)c2c3c(c(C)n2C)C(=O)N[C@@H](C)C3)c1F [Example 47, (S)-N-(2-fluoro-3-methylphenyl)-2,3,6-trimethyl-4-oxo-4,5,6,7-tetrahydro-2H-pyrrolo[3,4-c]pyridine-1-carboxamide]	500 to 1000	> 30	–	–	–
Cc1c2c(c(C(=O)Nc3cccc(Cl)c3)n1C)CCC(C)(C)NC2=O [Example 8, N-(3-chlorophenyl)-2,3,6,6-tetramethyl-4-oxo-2,4,5,6,7,8-hexahydropyrrolo[3,4-c]azepine-1-carboxamide]	50 to 499	> 30	–	–	–
Cc1cc(NC(=O)c2c3c(n(C)c2C)C(=O)NC(C)CC3)ccc1F (centres unmarked) [Example 25, N-(4-fluoro-3-methylphenyl)-1,2,6-trimethyl-8-oxo-1,4,5,6,7,8-hexahydropyrrolo[2,3-c]azepine-3-carboxamide]	< 50	> 30	–	–	–
C=C1c2c(c(C)n(C)c2C(=O)Nc2ccc(F)c(C)c2)C(=O)NC1C (centres unmarked) [Example 22, N-(4-fluoro-3-methylphenyl)-2,3,6-trimethyl-7-methylene-4-oxo-4,5,6,7-tetrahydro-2H-pyrrolo[3,4-c]pyridine-1-carboxamide]	500 to 1000	0.5 to 4.99	–	–	–
Cc1c2c(c(C(=O)Nc3cccc(C(F)F)c3)n1C)CCC(C)(C)NC2=O [Example 9, N-(3-(difluoromethyl)phenyl)-2,3,6,6-tetramethyl-4-oxo-2,4,5,6,7,8-hexahydropyrrolo[3,4-c]azepine-1-carboxamide]	50 to 499	> 30	–	–	–
Cc1cc(NC(=O)c2c3c(c(C)n2C)C(=O)NC(C)(C)CC3)cnc1F [Example 6, N-(6-fluoro-5-methylpyridin-3-yl)-2,3,6,6-tetramethyl-4-oxo-2,4,5,6,7,8-hexahydropyrrolo[3,4-c]azepine-1-carboxamide]	> 1000	> 30	–	–	–
Cc1cc(NC(=O)c2c3c(c(C)n2C)C(=O)NC(C)CC3)ccc1F (centres unmarked) [Example 24, N-(4-fluoro-3-methylphenyl)-2,3,6-trimethyl-4-oxo-2,4,5,6,7,8-hexahydropyrrolo[3,4-c]azepine-1-carboxamide]	< 50	> 30	–	–	–
Cc1c2c(c(C(=O)Nc3ccc(F)c(C(F)F)c3)n1C)CCC(C)(C)NC2=O [Example 12, N-(3-(difluoromethyl)-4-fluorophenyl)-2,3,6,6-tetramethyl-4-oxo-2,4,5,6,7,8-hexahydropyrrolo[3,4-c]azepine-1-carboxamide]	< 50	> 30	–	–	–
Cc1cc(NC(=O)c2c3c(c(C)n2C)C(=O)N[C@@H](C)C3)ccc1F [Example 46, (S)-N-(4-fluoro-3-methylphenyl)-2,3,6-trimethyl-4-oxo-4,5,6,7-tetrahydro-2H-pyrrolo[3,4-c]pyridine-1-carboxamide]	< 50	> 30	–	–	–
Cc1c2c(c(C(=O)Nc3ccc(F)c(F)c3)n1C)CCC(C)NC2=O (centres unmarked) [Example 48, N-(3,4-difluorophenyl)-2,3,6-trimethyl-4-oxo-2,4,5,6,7,8-hexahydropyrrolo[3,4-c]azepine-1-carboxamide]	500 to 1000	> 30	–	–	–
Cc1cc(NC(=O)c2c3c(c(C)n2C)C(=O)NC(C)C3C)ccc1F (centres unmarked) [Example 23, N-(4-fluoro-3-methylphenyl)-2,3,6,7-tetramethyl-4-oxo-4,5,6,7-tetrahydro-2H-pyrrolo[3,4-c]pyridine-1-carboxamide]	< 50	> 30	–	–	–
C=C1[C@H](CO)[C@@H](O)C[C@@H]1n1cnc2c(=O)[nH]c(N)nc21 [entecavir, reference compound]	–	–	–	–	0.5
Cc1c2c(c(C(=O)Nc3ccnc(F)c3)n1C)CCC(C)(C)NC2=O [Example 7, N-(2-fluoropyridin-4-yl)-2,3,6,6-tetramethyl-4-oxo-2,4,5,6,7,8-hexahydropyrrolo[3,4-c]azepine-1-carboxamide]	50 to 499	> 30	–	–	–
CCn1c(C)c2c(c1C(=O)Nc1ccc(F)c(C)c1)CCC(C)(C)NC2=O [Example 3, 2-ethyl-N-(4-fluoro-3-methylphenyl)-3,6,6-trimethyl-4-oxo-2,4,5,6,7,8-hexahydropyrrolo[3,4-c]azepine-1-carboxamide]	< 50	> 30	–	–	–
